Consider 4 molecules from US8852917B2, “Thuricin CD, an antimicrobial for specifically targeting Clostridium difficile” (University College Cork, priority 2007, dated 2014).

Converted amounts (≈) assume the structure as drawn. “Also recorded” adds a separate entry of the source. Like-named read-outs stand apart in the source and are kept apart here.

The subject of series [1] is C. difficile ribotypes 001, 106 and 027. Put plainly: Determination of minimum inhibitory concentrations. It is filed as cell-based.
A further series deals with Gram negative organisms. It is filed as cell-based. The note with it: WDA. As to the method:
B. thuringiensis DPC 6431 was grown aerobically from stock for ˜6 h in BHI broth and sub-cultured into fresh BHI at 0.1% for 18 h in BHI. Following growth, the culture was centrifuged twice at 8200 g for 10 min. Activity was determined using the well diffusion assay (WDA) as described by Ryan et al., (1996). Activity against a range of target organisms was determined by WDA. Cultures were grown over-night in various broth media and temperatures as outlined in Table 1. Twenty ml of the appropriate agar medium was inoculated with 100 μl of target organism and, once solidified, 50 μl of the cell free supernatant (CFS) of B. thuringiensis DPC 6431 was added to a well made in the agar. Plates were incubated under conditions appropriate for the various target organisms as outlined in Table 1. Zones of inhibition (mm) were measured and relative sensitivity determined by measuring the diameter of the zone. Zones of size ≦9 mm were designated +; of 10-15 mm were designated ++; of 16-21 mm were designated +++; of ≧22 mm were designated ++++;

Series [2] concerns L. monocytogenes NCTC 5348. Type of series: cell-based.
Another series has as its system B. lactis Bb12. It is filed as cell-based.
A further series has as its system C. difficile R027 NAP1. Put plainly: Kill curves. It is filed as cell-based. As to the method: The effect of thuricin against C. difficile R027 NAP1, L. monocytogenes NCTC 5348, Lb. casei 338 and B. lactis Bb12 was determined in Reinforced Clostridium Medium (RCM Merck), Brain Heart Infusion broth (Merck), MRS (de Mann-Rogosa-Sharpe) medium (Difco) and MRS containing 0.05% cystein respectively. Three independent cultures were prepared for each strain and grown overnight at 37° C. Three replicate one ml volumes of sterile double strength broth medium was prepared for each strain and inoculated with the test organisms to give initial cell numbers of 10^5-10^6/ml. Thuricin was added to give the required concentration and the volume made up to 2 ml with sterile distilled water. The bacteriocin was omitted from the control and volume substituted with sterile water. Samples were removed at intervals, serially diluted and plated on RCA, BHI agar, MRS agar or MRS agar containing 0.05% cystein depending on the strain. Plates were counted after 24 h (L. monocytogenes), or 48 h (C. difficile, Lb. casei 338 and B. lactis Bb12) incubation at 37° C.

Another series has as its system bifidobacteria strains. It is filed as cell-based.
The test system of the next series is C. difficile. Put plainly: Lysis of C. difficile by thuricin CD. Type of series: cell-based. As to the method:
The lytic effect of thuricin CD on C. difficile was carried out as described by Rea et at (2007).

The test system of series [3] is C. difficile DPC 6537 (PCR ribotype 001). As to the kind of experiment: Model faecal fermentation. The note with it: 500 μg thuricin added at 0, 8, and 16 hr; spiked with 10^6 cfu C. difficile ribotype 001/ml; after 16 hr incubation. It is filed as cell-based. As to the method:
C. difficile DPC 6537 (PCR Ribot e 001) was taken from −80° C. stock and streaked on Fastidious Anaerobic Agar and incubated anaerobically at 37° C. On the night before the experiment ˜1 colony was inoculated into 10 ml of RCM which has been previously boiled and cooled and incubated anaerobically at 37° C.
Faecal growth medium was prepared as described by Fooks and Gibson (2003) with minor modifications as follows. The ingredients were made up to 800 ml, the pH adjusted to 6.8. One hundred and sixty ml was added to each fermentation vessel and autoclaved at 121° C. for 15 min. Prior to inoculation the faecal medium was sparged with O2-free nitrogen for ˜1 h. A 20% faecal slurry was made from a fresh faecal sample in 50 mM phosphate buffer containing 0.05% cystein which has been previously boiled and cooled just prior to use and mixed using a stomacher for no longer than 1 min. Two fermentor vessels were inoculated with 35 ml of the slurry preparation and 2 ml of the overnight culture of C. difficile. […] Samples were also taken for analysis of thuricin activity using WDA and MALDI-TOF MS.
(§1) C. difficile was enumerated on CCEY agar (LabM) and Bifidobacterium sp. on modified MRS agar containing 0.05% cystein and 50 mg mupirocin/1 after 48 h and 72 h at 37° C. incubation respectively.

A short description of the next series: Heat sensitivity. It is filed as physicochemical. As to the method:
(§2) Activity over a range of pH was determined in CFS by adjusting pH from 2 to 9 using either 0.5M HCl or 1M NaOH. The effect of acid or base on the target organism was determined using uninoculated broth medium adjusted through the pH range. Activity was determined using WDA assay using C. difficile ATCC 43593 as the target strain. Heat sensitivity was determined by heating the CFS for 15 min at a range of temperatures from 37° C. to 100° C.; the control was incubated at 37° C. Activity was determined using WDA with C. difficile ATCC 43593 as the target organism.

The subject of a further series is Bifidobacteria. Put plainly: Model faecal fermentation. The following applies: up to 16 hr incubation. Type of series: cell-based, Bifidobacterium sp. As to the method:
Faecal growth medium was prepared as described by Fooks and Gibson (2003) with minor modifications as follows. The ingredients were made up to 800 ml, the pH adjusted to 6.8. One hundred and sixty ml was added to each fermentation vessel and autoclaved at 121° C. for 15 min. Prior to inoculation the faecal medium was sparged with O2-free nitrogen for ˜1 h. A 20% faecal slurry was made from a fresh faecal sample in 50 mM phosphate buffer containing 0.05% cystein which has been previously boiled and cooled just prior to use and mixed using a stomacher for no longer than 1 min. Two fermentor vessels were inoculated with 35 ml of the slurry preparation and 2 ml of the overnight culture of C. difficile. To the test vessel 1 ml of 100 mg/ml thuricin was added at 0, 8 and 16 h incubation and both vessels sampled at 0, 4, 8, 12, 16, 20 and 24 h for both microbiological analyses of C. difficile and Bifidobacteria sp. Samples were also taken for analysis of thuricin activity using WDA and MALDI-TOF MS.
as §1

Series [4] is described as follows: Sensitivity to enzymatic degradation. Type of series: in vitro ADME. The following applies: FIG. 1; Proteinase K (6.5 mg/ml) applied to the edge of the well. As to the method:
The cell free supernatant was tested for sensitivity to the following enzymes at a concentration of 25 mg/ml: pepsin, trypsin, peptidase, α-chymotrypsin type V111, α-chymotrypsin type 11 and proteinase K. All enzymes were purchased from Sigma. Cell free supernatants were incubated with the enzymes for 1 h at 37° C. Activity post enzyme treatment was determined using the well diffusion method using C. difficile ATCC 43593 as the target organism. Sensitivity of the antimicrobial to Proteinase K was also determined by applying 5 μl of Proteinase K (6.5 mg/ml) to the edge of the well containing the sample.

Series [5] can be described thus: Stability in simulated gastric, ileal and colon juice. Type of series: in vitro ADME. The note with it: 37° C., 1 mg/ml, WDA. As to the method:
Effect of simulated gastric, ileal and colon juice on stability of thuricin CD C. difficile 64539 was grown overnight and inoculated at 1.25% into Reinforced Clostridium Agar (RCA). Simulated gastric, ileal and colon juice were prepared as outlined by Breumer et al (1992). Purified thuricin CD was made up to 100 mg/ml in 70% IPA. Seventy μl (1 mg/ml final concentration) of thuricin was added to 7000 μl of porcine gastric and ileum juice and incubated at 37° C. At intervals samples were taken and activity was measured with the WDA using C. difficile seeded plates. The samples were also assayed for the presence of the Trn-α and Trn-β peptides using MALDI-TOF MS

The test system of a further series is Lb. casei 338. It is filed as cell-based.
A short description of series [6]: Activity over a range of pH. It is filed as physicochemical. As to the method: as §2
Series [7] can be described thus: Stability in ex vivo porcine gastric and ileal juice. The note with it: 37° C., 1 mg/ml, WDA. Type of series: in vitro ADME. As to the method:
Effect of ex vivo porcine gastric and ileal juice on the stability of the thuricin CD C. difficile 64539 was grown overnight and inoculated at 1.25% into Reinforced Clostridium Agar (RCA). Purified Thuricin CD was prepared as described above. Seven ml of porcine ileal and gastric juice was centrifuged for 15 min at 12,000 rpm to remove debris. Seventy μl (1 mg/ml) of thuricin was added to 7000 μl of porcine gastric and ileum juice and incubated at 37° C. At intervals samples were taken and activity was measured using the WDA and checked for the presence of the Trn-α and Trn-β peptides using MALDI-TOF MS.

Series [8] has as its system Lactobacillus and Bifidobacterium populations. The note with it: simple faecal fermentations; concentrations required to kill C. difficile; cited from earlier work.
Where [9] appears, read: C. difficile ribotype 001, 16 h at 37° C. anaerobically, read-out: MIC.
Setting [10] is: C. difficile ribotype 106, 16 h at 37° C. anaerobically, read-out: MIC.

`Cc1ncc([N+](=O)[O-])n1CCO` [Metronidazole, metronidazole]: the MIC in [1] (Clostridioides difficile, 16 h, C. difficile ribotype 001, 16 h at 37° C. anaerobically, read-out: MIC) came to 3.12 µM (≈ 0.535 µg/mL); in series [1] (Clostridioides difficile, 16 h, C. difficile ribotype 027, 16 h at 37° C. anaerobically, read-out: MIC), 3.12 µM (≈ 0.535 µg/mL); in series [1] (Clostridioides difficile, 16 h, C. difficile ribotype 106, 16 h at 37° C. anaerobically, read-out: MIC) it was 1.56 µM (≈ 0.267 µg/mL).
Consider `CN[C@H](CC(C)C)C(=O)N[C@H]1C(=O)N[C@@H](CC(N)=O)C(=O)N[C@H]2C(=O)N[C@H]3C(=O)N[C@H](C(=O)N[C@H](C(=O)O)c4cc(O)cc(O)c4-c4cc3ccc4O)[C@H](O)c3ccc(c(Cl)c3)Oc3cc2cc(c3O[C@@H]2O[C@H](CO)[C@@H](O)[C@H](O)[C@H]2O[C@H]2C[C@](C)(N)[C@H](O)[C@H](C)O2)Oc2ccc(cc2Cl)[C@H]1O` [Vancomycin, vancomycin], for which the minimal inhibitory concentration (MIC) in series [1] (setting [9]) was found to be 0.39 µM (≈ 0.565 µg/mL); in [1] (setting [10]), 0.39 µM (≈ 0.565 µg/mL); in series [1] (Clostridioides difficile, 16 h) it was 0.39 µM (≈ 0.565 µg/mL).
As to Thuricin CD, the “Activity against Gram negative organisms tested” value in the series on Gram negative organisms is reported as “no activity”. Further, the “Reduction of cell numbers of L. monocytogenes” value in [2] came to 1.5 log cycles. Moreover, the “Effect on viability of B. lactis BB12” value in the series on B. lactis Bb12 was “no effect; also recorded: did not affect”. Moreover, the “Time within which approximately 5×10^6 CFU of C. difficile per ml are killed” value in the series with C. difficile R027 NAP1 (5 μM) was at most 60 minutes. The “Time to reduce viable cells from ˜10^6/ml to zero” value in the series with C. difficile R027 NAP1 (200 AU thuricin/ml, C. difficile PCR ribotype 027) is recorded as at most 2 h. For the same molecule, in the series with C. difficile R027 NAP1 (200 AU/ml), the “Time within which approximately 5×10^6 CFU of C. difficile per ml are killed” value is given as at most 180 minutes and the “Time within which ˜5×10^6 cfu of C. difficile per ml were killed” value is given as at most 180 min. In addition, in the series on bifidobacteria strains, the “Sensitivity of bifidobacteria strains tested” value is on record as “No bifidobacteria strains tested were sensitive”. Further, the “Effect on OD600 nm of logarithmically growing C. difficile” value with C. difficile is “gradual reduction of OD600 nm”. Besides, the “Acetate kinase in the growth medium (lysis)” value in the series on C. difficile (logarithmically growing C. difficile) is reported as “release of the intracellular enzyme acetate kinase”. In addition, the “Reduction of C. difficile compared with the control” value in series [3] is “over 1000 fold”. Further, in the series “Heat sensitivity”, the “Activity after heating at 90° C.” value is “reduction of activity”, the “Activity after heating at 100° C.” value was “loss of activity”, the “Temperature up to which heat stable / activity retained” value is “up to 95 °C” and the “Temperature up to which heat-stable” value is “about 85 ° Centigrade”. The minimum inhibitory concentration (MIC) in [1] (setting [9]) turned out to be 0.097 µM. Further, the MIC in series [1] (C. difficile ribotype 027, 16 h at 37° C. anaerobically, read-out: MIC) is 0.012 µM. Besides, the MIC in [1] (setting [10]) was 0.125 µM. Further, the “Effect on numbers of Bifidobacteria relative to control” value in the series on Bifidobacteria is listed as “did not affect”. Also, in [4], the “Activity on treatment with Proteinase K” value is recorded as “lost”. Also, the “Activity after incubation in simulated gastric juice” value in [5] (2 hours) is recorded as “no reduction of activity”. For the same molecule, in series [5] (4 hours), the “Activity after incubation in simulated ileal juice” value is listed as “no reduction of activity”. In addition, the “Activity after incubation in simulated colon juice” value in series [5] (9 hours) is on record as “no reduction of activity”. In the series on Lb. casei 338, the “Effect on viability of Lb. casei 338” value was “no effect; also recorded: did not affect”. Further, the “pH range in which active” value in series [6] was 2-10. The “Activity after incubation in ex vivo porcine gastric juice” value in series [7] (2 hr) is “no reduction in activity”. For the same molecule, in series [7] (5 hr), the “Activity after incubation in ex vivo porcine ileal juice” value is given as “no reduction in activity”.
With lacticin 3147, the “Effect on Lactobacillus and Bifidobacterium populations” value in [8] was 3 log cycles.

A word on the MIC: it is the least concentration at which growth counts as inhibited.
